According to patent US12590123B2, “Compounds and methods for treating cancer, viral infections, and allergic conditions” (Washington University, priority 2019, dated 2026):
Read-outs that look alike come from different tables or passages of the source. One block for each compound: values may come before it.

Experiments:
Format in all cases: biochemical
matriptase = target: T1, matriptase (Homo sapiens, UniProt Q9Y5Y6); test: Fluorescent kinetic enzyme assay of matriptase activity (Boc-QAR-AMC); conditions: Table 2; read-out: Matriptase (IC50 nM)
T1 construct: purchased R&D Systems 3946-SE-010
T1 sequence (Q9Y5Y6 615-855 limits assumed): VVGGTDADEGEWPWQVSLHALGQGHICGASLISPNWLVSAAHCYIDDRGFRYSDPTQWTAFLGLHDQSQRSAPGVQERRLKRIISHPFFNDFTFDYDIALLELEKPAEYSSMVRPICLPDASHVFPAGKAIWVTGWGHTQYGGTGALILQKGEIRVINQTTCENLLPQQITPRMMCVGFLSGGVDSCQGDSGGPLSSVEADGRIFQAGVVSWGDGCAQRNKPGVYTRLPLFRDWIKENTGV

activated hepsin = target: T2, activated hepsin (Homo sapiens, UniProt P05981); test: Fluorescent kinetic enzyme assay of hepsin activity (Boc-QAR-AMC)
T2 construct: purchased R&D Systems 4776-SE-010
T2 sequence (P05981 163-417 limits assumed): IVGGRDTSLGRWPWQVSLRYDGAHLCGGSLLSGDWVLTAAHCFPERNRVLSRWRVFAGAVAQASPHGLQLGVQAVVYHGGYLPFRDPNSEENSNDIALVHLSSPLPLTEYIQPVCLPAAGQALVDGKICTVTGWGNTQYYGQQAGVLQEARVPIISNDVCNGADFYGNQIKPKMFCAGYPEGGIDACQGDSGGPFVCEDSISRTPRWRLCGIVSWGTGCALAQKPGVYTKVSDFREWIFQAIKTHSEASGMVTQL
T2 sequence (P05981 1-162 partner limits assumed): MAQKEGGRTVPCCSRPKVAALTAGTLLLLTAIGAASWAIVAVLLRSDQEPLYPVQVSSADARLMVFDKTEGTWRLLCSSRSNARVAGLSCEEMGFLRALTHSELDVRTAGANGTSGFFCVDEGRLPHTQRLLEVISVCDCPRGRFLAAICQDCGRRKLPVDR

[1] = target: T3, recombinant HGFA serine protease domain (Homo sapiens, UniProt Q04756); test: Fluorescent kinetic enzyme assay of HGFA activity (Boc-QLR-AMC)
T3 construct: His6 tag (N); seven amino acid spacer plus TEV cleavage site (N); made in house; host or cells: High 5 insect cells (baculovirus; Sf9 for virus production)
T3 sequence (Q04756 373-655): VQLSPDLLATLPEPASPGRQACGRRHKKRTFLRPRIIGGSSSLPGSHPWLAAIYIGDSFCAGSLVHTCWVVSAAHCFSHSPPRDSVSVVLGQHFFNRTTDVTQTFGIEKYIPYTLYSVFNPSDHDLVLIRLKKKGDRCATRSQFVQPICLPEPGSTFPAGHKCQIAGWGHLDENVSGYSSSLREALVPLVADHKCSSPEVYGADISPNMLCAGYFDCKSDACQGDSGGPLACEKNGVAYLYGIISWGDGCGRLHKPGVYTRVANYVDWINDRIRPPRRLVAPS
Description: The compounds prepared in Examples 1 to 8 were subjected to a series of inhibitions studies. The compounds were first tested in an HGFA enzymatic assay using the fluorogenic substrate Boc-QLR-AMC with a recombinant form of the HGFA serine protease domain.
This PCR product was cloned into the SfoI-HindIII sites of a modified pFastBac HT baculovirus expression vector (Addgene, Cambridge, MA). This vector contains a six amino His tag followed by a seven amino spacer and a seven amino acid TEV cleavage site placed immediately downstream of the honey bee melittin signal peptide. Using a modified Bac to Bac Expression System (Life Technologies, Carlsbad, CA), recombinant HGFA bacmids were obtained by transforming DH10Bac Escherichia coli cells. To obtain HGFA containing baculovirus, purified bacmids were transfected into Sf9 insect cells. After 5 days in culture at 27° C., media was harvested from transfected Sf9 cells. This media was used to prepare baculovirus infected insect cells (BIICs). These BIIICs were used to infect High 5 insect cells. Four days post infection, media was harvested, and recombinant protein was prepared as follows. Media was chilled to 4° C. and spun at 4000×g for 20 minutes (all subsequent steps were performed at 4° C. unless noted). Clarified media was passed first through a Whatman GF/B 1 um (#1821-047, GE Healthcare Life Sciences, Piscataway, NJ) and then a 0.22 μm PES membrane (#99955, TPP Techno Plastic Products AG, Trasadingen, Switzerland) and then concentrated using a Pall Centramate tangential flow system and Centramate T-series Cassette (#OS010T12, Pall Corporation, Port Washington, NY). Concentrated media was then buffer exchanged in two steps, five volumes of 50 mM Na-phosphate, 500 mM NaCl, pH 6.2, followed by five volumes of 50 mM Na-phosphate, 500 mM NaCl, pH 7.5. […] After mixing this slurry for 12 hours, nickel agarose beads were allowed to settle by gravity and then loaded into a column. Beads were washed with buffer (25 mM Na-phosphate, 500 mM NaCl, 25 mM imidazole, pH 8) and the bound protein eluted using (25 mM Na-phosphate, 500 mM NaCl, 250 mM imidazole, pH 8). Using a Amicon Ultra-4 Centrifugal filters (#UFC801008, Merck Millipore, Ltd., Tullagreen, Ireland), peak protein fractions were concentrated and run over a Superdex-200 10/300 GL column (GE Healthcare Life Sciences, Piscataway, NJ) in 10 mM Tris, 200 mM NaCl, 0.2 mM EDTA, pH 8. HGFA containing fractions were pooled, concentrated, made 50% glycerol, and stored at minus 20° C. Protein was quantitated using a modified Lowry protein assay (#500-0006, Bio-Rad Laboratories, Hercules, CA) and specific activity determined using Boc-QLR-AMC substrate.
Fluorescent kinetic enzyme assays of HGFA, matriptase, and hepsin activity: Compounds (0-20 μM final concentration in reaction) were diluted in DMSO (2% DMSO final concentration in reaction) and then mixed with either recombinant HGFA serine protease domain, matriptase (#3946-SE-010, R&D Systems, Minneapolis, Minnesota), or activated hepsin* (#4776-SE-010, R&D Systems, Minneapolis, Minnesota) in black 384 well plates (Corning #3575. Coming, NY). The final assay concentration for HGFA, matriptase, and hepsin, were 6.25 nM, 0.2 nM, and 0.3 nM, respectively in TNC buffer (25 mM Tris, 150 mM NaCl, 5 mM CaCl2, 0.01% Triton X-100, pH 8). After thirty minutes of incubation at room temperature, Boc-QLR-AMC substrate was added (HGFA assay) or Boc-QAR-AMC substrate (matriptase, and hepsin assays). Fluorescence (excitation at 380 nm and emission at 460 nm) was kinetically measured at room temperature over a 1 hour time period using a Biotek Synergy 2 plate reader (Winnoski, VT). From a plot of the mean reaction velocity versus the inhibitor concentration, a non-linear four parameter curve fit was performed using GraphPad Prism (GraphPad Software, San Diego, CA) to determine inhibitor IC50s. The IC50 values were determined from the average of three or more separate experimental determinations. […]

[2] = Table 2, read-out: Hepsin (IC50 nM)
[3] = Table 3, average of three experiments, read-out: Hepsin IC50
[4] = Example 12, read-out: IC50 for hepsin
[5] = Table 3, average of three experiments, read-out: HGFA IC50

Structure (SMILES): CC(C)C[C@H](NC(=O)OC1CCN(S(=O)(=O)c2ccccc2F)CC1)C(=O)N[C@@H](CCCNC(=N)N)C(=O)c1nc2ccccc2s1 [Compound 8g, 1-((2-fluorophenyl)sulfonyl)piperidin-4-yl ((S)-1-(((S)-1-(benzo[d]thiazol-2-yl)-5-guanidino-1-oxopentan-2-yl)amino)-4-methyl-1-oxopentan-2-yl)carbamate]
IC50 (activated hepsin; [3]): 70 nM

Structure (SMILES): CC(C)C[C@H](NC(=O)OC1CCN(S(=O)(=O)c2ccc([N+](=O)[O-])cc2[N+](=O)[O-])CC1)C(=O)N[C@@H](CCCNC(=N)N)C(=O)c1nc2ccccc2s1 [Compound 8k, 1-((2,4-dinitrophenyl)sulfonyl)piperidin-4-yl ((S)-1-(((S)-1-(benzo[d]thiazol-2-yl)-5-guanidino-1-oxopentan-2-yl)amino)-4-methyl-1-oxopentan-2-yl)carbamate]
IC50 (activated hepsin; [3]): 110 nM

Structure (SMILES): CCS(=O)(=O)N1CCC(OC(=O)N[C@@H](CC(C)C)C(=O)N[C@@H](CCCNC(=N)N)C(=O)c2nc3ccccc3s2)CC1 [Compound 8h, 1-(ethylsulfonyl)piperidin-4-yl ((S)-1-(((S)-1-(benzo[d]thiazol-2-yl)-5-guanidino-1-oxopentan-2-yl)amino)-4-methyl-1-oxopentan-2-yl)carbamate]
IC50 (activated hepsin; [3]): 10 nM

Structure (SMILES): CC(C)C[C@H](NC(=O)OC1CCN(S(=O)(=O)c2ccccc2)CC1)C(=O)N[C@@H](CCCNC(=N)N)C(=O)c1nc2ccccc2s1 [Compound 8f, 1-(phenylsulfonyl)piperidin-4-yl ((S)-1-(((S)-1-(benzo[d]thiazol-2-yl)-5-guanidino-1-oxopentan-2-yl)amino)-4-methyl-1-oxopentan-2-yl)carbamate]
IC50 (activated hepsin; [3]): 20 nM

Structure (SMILES): Cc1cc(C)c(S(=O)(=O)N2CCC(OC(=O)N[C@@H](CC(C)C)C(=O)N[C@@H](CCCNC(=N)N)C(=O)c3nc4ccccc4s3)CC2)c(C)c1 [Compound 8m, 1-(mesitylsulfonyl)piperidin-4-yl ((S)-1-(((S)-1-(benzo[d]thiazol-2-yl)-5-guanidino-1-oxopentan-2-yl)amino)-4-methyl-1-oxopentan-2-yl)carbamate]
IC50 (activated hepsin; [3]): 110 nM

Structure (SMILES): CC1CN(CC2CCN(Cc3ccccc3)CC2)C(=O)N(c2cccc(C(=N)N)c2)C1 (centres unmarked) [SRI 31215, reference compound]
IC50 [1, 5]: 20000 nM

Structure (SMILES): CC(=O)N1CCC(OC(=O)N[C@@H](CC(C)C)C(=O)N[C@@H](CCCNC(=N)N)C(=O)c2nc3ccccc3s2)CC1 [Compound 8e, 1-acetylpiperidin-4-yl ((S)-1-(((S)-1-(benzo[d]thiazol-2-yl)-5-guanidino-1-oxopentan-2-yl)amino)-4-methyl-1-oxopentan-2-yl)carbamate]
IC50 (activated hepsin; [3]): 20 nM

Structure (SMILES): COc1ccc(Cl)cc1S(=O)(=O)N1CCC(OC(=O)N[C@@H](CC(C)C)C(=O)N[C@@H](CCCNC(=N)N)C(=O)c2nc3ccccc3s2)CC1 [Compound 8l, 1-((5-chloro-2-methoxyphenyl)sulfonyl)piperidin-4-yl ((S)-1-(((S)-1-(benzo[d]thiazol-2-yl)-5-guanidino-1-oxopentan-2-yl)amino)-4-methyl-1-oxopentan-2-yl)carbamate]
IC50 (activated hepsin; [3]): 60 nM

Structure (SMILES): CC(C)C[C@H](NC(=O)OC1CCN(S(=O)(=O)c2ccc(Cl)cc2)CC1)C(=O)N[C@@H](CCCNC(=N)N)C(=O)c1nc2ccccc2s1 [Compound 8i, 1-((4-chlorophenyl)sulfonyl)piperidin-4-yl ((S)-1-(((S)-1-(benzo[d]thiazol-2-yl)-5-guanidino-1-oxopentan-2-yl)amino)-4-methyl-1-oxopentan-2-yl)carbamate]
IC50 (activated hepsin; [3]): 60 nM

Structure (SMILES): CC(C)C[C@H](NC(=O)OC1CCN(S(=O)(=O)c2cccc(F)c2)CC1)C(=O)N[C@@H](CCCNC(=N)N)C(=O)c1nc2ccccc2s1 [Compound 8j, 1-((3-fluorophenyl)sulfonyl)piperidin-4-yl ((S)-1-(((S)-1-(benzo[d]thiazol-2-yl)-5-guanidino-1-oxopentan-2-yl)amino)-4-methyl-1-oxopentan-2-yl)carbamate]
IC50 (activated hepsin; [3]): 70 nM

Structure (SMILES): CC(C)C[C@H](NC(=O)OC1(c2ccccc2)CCNCC1)C(=O)N[C@@H](CCCNC(=N)N)C(=O)c1nc2ccccc2s1 [Compound 8a, 4-phenylpiperidin-4-yl ((S)-1-(((S)-1-(benzo[d]thiazol-2-yl)-5-guanidino-1-oxopentan-2-yl)amino)-4-methyl-1-oxopentan-2-yl)carbamate]
IC50 [1, 5]: 780 nM

Now from value to compound:

IC50 (matriptase): 19.1 nM
IC50 (activated hepsin; [2]): 10.1 nM
IC50 ([1]; Table 2, read-out: HGFA (IC50 nM)): 4750 nM
Structure (SMILES): C=CCNC(=O)CC[C@H](NC(=O)[C@H](CC(C)C)NC(=O)[C@H](Cc1ccc(OCC=C)cc1)NC(C)=O)C(=O)N[C@@H](CCCNC(=N)N)C(=O)c1nc2ccccc2s1 [VD4022, (S)-2-((S)-2-((S)-2-acetamido-3-(4-(allyloxy)phenyl)propanamido)-4-methylpentanamido)-N5-allyl-N1-((S)-1-(benzo[d]thiazol-2-yl)-5-guanidino-1-oxopentan-2-yl)pentanediamide]

IC50 (activated hepsin; [4]): 2 nM
IC50 [1, 5]: 6000 nM
Structure (SMILES): CC(C)C[C@H](NC(=O)OC(Cc1ccccc1)C1CCNCC1)C(=O)N[C@@H](CCCNC(=N)N)C(=O)c1nc2ccccc2s1 (stereo partly drawn) [Compound 11b, 2-phenyl-1-(piperidin-4-yl)ethyl ((S)-1-(((S)-1-(benzo[d]thiazol-2-yl)-5-guanidino-1-oxopentan-2-yl)amino)-4-methyl-1-oxopentan-2-yl)carbamate]

IC50 (matriptase): 72.6 nM
IC50 (activated hepsin; [2]): 0.643 nM
Structure (SMILES): CC(=O)N[C@H]1Cc2ccc(cc2)OC/C=C\CNC(=O)C[C@@H](C(=O)N[C@@H](CCCNC(=N)N)C(=O)c2nc3ccccc3s2)NC(=O)[C@H](CC(C)C)NC1=O [VD4054, (10S,13S,16S,Z)-16-acetamido-N—((S)-1-(benzo[d]thiazol-2-yl)-5-guanidino-1-oxopentan-2-yl)-13-isobutyl-8,12,15-trioxo-2-oxa-7,11,14-triaza-1(1,4)-benzenacycloheptadecaphan-4-ene-10-carboxamide]

IC50 (activated hepsin; [4]): 8 nM
IC50 [1, 5]: 14000 nM
Structure (SMILES): CC(C)C[C@H](NC(=O)OC(c1ccccc1)C1CCNCC1)C(=O)N[C@@H](CCCNC(=N)N)C(=O)c1nc2ccccc2s1 (stereo partly drawn) [Compound 11a, phenyl(piperidin-4-yl)methyl ((S)-1-(((S)-1-(benzo[d]thiazol-2-yl)-5-guanidino-1-oxopentan-2-yl)amino)-4-methyl-1-oxopentan-2-yl)carbamate]
